# According to ChEMBL document CHEMBL3885861, “Open TG-GATES”:
# Species on record: Rattus norvegicus
# Experiment: Open TG-GATES - Regimen: Daily Repeat
# Type: toxicity, organism-based, Sprague-Dawley
# Set-up: regimen Daily Repeat, gender Male, age 6 weeks
# Conditions: in vivo, po, 100 mg/kg, route gavage, dose level Low; for APTT / Bas / Eos / Fbg / Hb / Ht / Lym / MCH / MCHC / MCV / Mono / Neu / PT / Plat / RBC / Ret / WBC: tissue Blood; for KIDNEY_L / KIDNEY_R / KIDNEY_TOTAL: tissue Kidney; for LIVER: tissue Liver; for A/G / ALP / ALT / AST / BUN / CRE / Ca / Cl / DBIL / GLC / IP / K / LDH / Na / PL / RALB / TBIL / TC / TG / TP / gamma-GTP: tissue Plasma
structure (smiles),measurement,setting,value
CNC(=C[N+](=O)[O-])NCCSCc1ccc(CN(C)C)o1 [RANITIDINE],TERMINAL_BW,"72 h, time 3 day",232 g
same,APTT,"72 h, time 3 day",19.5 s
same,Bas,"72 h, time 3 day",0%
same,Eos,"72 h, time 3 day",1.4%
same,Fbg,"72 h, time 3 day",221.4 mg/dL
same,Hb,"72 h, time 3 day",14 g/dL
same,Ht,"72 h, time 3 day",40.9%
same,Lym,"72 h, time 3 day",78.6%
same,MCH,"72 h, time 3 day",21.7 pg
same,MCHC,"72 h, time 3 day",34.2%
same,MCV,"72 h, time 3 day",63.3 fL
same,Mono,"72 h, time 3 day",2.6%
same,Neu,"72 h, time 3 day",15.8%
same,PT,"72 h, time 3 day",11.9 s
same,Plat,"72 h, time 3 day",129.9 x10_4/uL
same,RBC,"72 h, time 3 day",646.4 x10_4/ul
same,Ret,"72 h, time 3 day",5.2%
same,WBC,"72 h, time 3 day",75.1 x10_2/uL
same,KIDNEY_L,"72 h, time 3 day",1 g
same,KIDNEY_R,"72 h, time 3 day",1 g
same,KIDNEY_TOTAL,"72 h, time 3 day",2 g
same,LIVER,"72 h, time 3 day",11.2 g
same,A/G,"72 h, time 3 day",1.6
same,ALP,"72 h, time 3 day",970 IU/L
same,ALT,"72 h, time 3 day",34.6 IU/L
same,AST,"72 h, time 3 day",63.6 IU/L
same,BUN,"72 h, time 3 day",15.6 mg/dL
same,CRE,"72 h, time 3 day",0.4 mg/dL
same,Ca,"72 h, time 3 day",10.8 mg/dL
same,Cl,"72 h, time 3 day",103.8 meq/L
same,DBIL,"72 h, time 3 day",0.086 mg/dL
same,GLC,"72 h, time 3 day",192.8 mg/dL
same,IP,"72 h, time 3 day",7.4 mg/dL
same,K,"72 h, time 3 day",4.1 meq/L
same,LDH,"72 h, time 3 day",185.2 IU/L
same,Na,"72 h, time 3 day",141.4 meq/L
same,PL,"72 h, time 3 day",152.6 mg/dL
same,RALB,"72 h, time 3 day",3.5 g/dL
same,TBIL,"72 h, time 3 day",0.1 mg/dL
same,TC,"72 h, time 3 day",82.2 mg/dL
same,TG,"72 h, time 3 day",80 mg/dL
same,TP,"72 h, time 3 day",5.7 g/dL
same,gamma-GTP,"72 h, time 3 day",1 IU/L
same,TERMINAL_BW,"[…], time 7 day",264.8 g
same,TERMINAL_BW,"[…], time 14 day",314.1 g
same,TERMINAL_BW,"[…], time 28 day",381.6 g
same,APTT,"[…], time 7 day",19.8 s
same,Bas,"[…], time 7 day",0%
same,Eos,"[…], time 7 day",1%
same,Fbg,"[…], time 7 day",233.2 mg/dL
same,Hb,"[…], time 7 day",14 g/dL
same,Ht,"[…], time 7 day",39.9%
same,Lym,"[…], time 7 day",81.8%
same,MCH,"[…], time 7 day",21.8 pg
same,MCHC,"[…], time 7 day",35.2%
same,MCV,"[…], time 7 day",62.1 fL
same,Mono,"[…], time 7 day",2.6%
same,Neu,"[…], time 7 day",13.6%
same,PT,"[…], time 7 day",12.3 s
same,Plat,"[…], time 7 day",127.2 x10_4/uL
same,RBC,"[…], time 7 day",643.2 x10_4/ul
same,Ret,"[…], time 7 day",5.2%
same,WBC,"[…], time 7 day",99.9 x10_2/uL
same,APTT,"[…], time 14 day",19.6 s
same,Bas,"[…], time 14 day",0%
same,Eos,"[…], time 14 day",0.8%
same,Fbg,"[…], time 14 day",243.8 mg/dL
same,Hb,"[…], time 14 day",14.7 g/dL
same,Ht,"[…], time 14 day",40.9%
same,Lym,"[…], time 14 day",78.6%
same,MCH,"[…], time 14 day",21.7 pg
same,MCHC,"[…], time 14 day",36%
same,MCV,"[…], time 14 day",60.4 fL
same,Mono,"[…], time 14 day",2%
same,Neu,"[…], time 14 day",16.4%
same,PT,"[…], time 14 day",11.9 s
same,Plat,"[…], time 14 day",101 x10_4/uL
same,RBC,"[…], time 14 day",678 x10_4/ul
same,Ret,"[…], time 14 day",4%
same,WBC,"[…], time 14 day",109.6 x10_2/uL
same,APTT,"[…], time 28 day",20.9 s
same,Bas,"[…], time 28 day",0.2%
same,Eos,"[…], time 28 day",1%
same,Fbg,"[…], time 28 day",228.8 mg/dL
same,Hb,"[…], time 28 day",15.7 g/dL
same,Ht,"[…], time 28 day",45.1%
same,Lym,"[…], time 28 day",82.6%
same,MCH,"[…], time 28 day",19.8 pg
same,MCHC,"[…], time 28 day",34.9%
same,MCV,"[…], time 28 day",56.5 fL
same,Mono,"[…], time 28 day",1.8%
same,Neu,"[…], time 28 day",12.8%
same,PT,"[…], time 28 day",12.2 s
same,Plat,"[…], time 28 day",103.7 x10_4/uL
same,RBC,"[…], time 28 day",797.4 x10_4/ul
same,Ret,"[…], time 28 day",1.8%
same,WBC,"[…], time 28 day",119.7 x10_2/uL
same,KIDNEY_L,"[…], time 7 day",1.1 g
same,KIDNEY_R,"[…], time 7 day",1.1 g
same,KIDNEY_TOTAL,"[…], time 7 day",2.2 g
same,KIDNEY_L,"[…], time 14 day",1.2 g
same,KIDNEY_R,"[…], time 14 day",1.2 g
same,KIDNEY_TOTAL,"[…], time 14 day",2.4 g
same,KIDNEY_L,"[…], time 28 day",1.4 g
same,KIDNEY_R,"[…], time 28 day",1.3 g
same,KIDNEY_TOTAL,"[…], time 28 day",2.7 g
same,LIVER,"[…], time 7 day",12.5 g
same,LIVER,"[…], time 14 day",14.7 g
same,LIVER,"[…], time 28 day",15.5 g
same,A/G,"[…], time 7 day",1.5
same,ALP,"[…], time 7 day",852.4 IU/L
same,ALT,"[…], time 7 day",32.4 IU/L
same,AST,"[…], time 7 day",61.2 IU/L
same,BUN,"[…], time 7 day",17.8 mg/dL
same,CRE,"[…], time 7 day",0.4 mg/dL
same,Ca,"[…], time 7 day",10.8 mg/dL
same,Cl,"[…], time 7 day",103 meq/L
same,DBIL,"[…], time 7 day",0.1 mg/dL
same,GLC,"[…], time 7 day",223.6 mg/dL
same,IP,"[…], time 7 day",7.9 mg/dL
same,K,"[…], time 7 day",3.9 meq/L
same,LDH,"[…], time 7 day",174.4 IU/L
same,Na,"[…], time 7 day",139.6 meq/L
same,PL,"[…], time 7 day",149.2 mg/dL
same,RALB,"[…], time 7 day",3.4 g/dL
same,TBIL,"[…], time 7 day",0.2 mg/dL
same,TC,"[…], time 7 day",73.2 mg/dL
same,TG,"[…], time 7 day",125.4 mg/dL
same,TP,"[…], time 7 day",5.6 g/dL
same,gamma-GTP,"[…], time 7 day",1.2 IU/L
same,A/G,"[…], time 14 day",1.4
same,ALP,"[…], time 14 day",793 IU/L
same,ALT,"[…], time 14 day",35.6 IU/L
same,AST,"[…], time 14 day",63.2 IU/L
same,BUN,"[…], time 14 day",16.4 mg/dL
same,CRE,"[…], time 14 day",0.5 mg/dL
same,Ca,"[…], time 14 day",10.7 mg/dL
same,Cl,"[…], time 14 day",103.6 meq/L
same,DBIL,"[…], time 14 day",0.1 mg/dL
same,GLC,"[…], time 14 day",190.4 mg/dL
same,IP,"[…], time 14 day",6.9 mg/dL
same,K,"[…], time 14 day",3.9 meq/L
same,LDH,"[…], time 14 day",180 IU/L
same,Na,"[…], time 14 day",142 meq/L
same,PL,"[…], time 14 day",159.4 mg/dL
same,RALB,"[…], time 14 day",3.5 g/dL
same,TBIL,"[…], time 14 day",0.2 mg/dL
same,TC,"[…], time 14 day",75.6 mg/dL
same,TG,"[…], time 14 day",152 mg/dL
same,TP,"[…], time 14 day",6 g/dL
same,gamma-GTP,"[…], time 14 day",1.2 IU/L
same,A/G,"[…], time 28 day",1.3
same,ALP,"[…], time 28 day",621.4 IU/L
same,ALT,"[…], time 28 day",32.8 IU/L
same,AST,"[…], time 28 day",63.4 IU/L
same,BUN,"[…], time 28 day",17.2 mg/dL
same,CRE,"[…], time 28 day",0.5 mg/dL
same,Ca,"[…], time 28 day",10.3 mg/dL
same,Cl,"[…], time 28 day",103.2 meq/L
same,DBIL,"[…], time 28 day",0.094 mg/dL
same,GLC,"[…], time 28 day",220.2 mg/dL
same,IP,"[…], time 28 day",6.6 mg/dL
same,K,"[…], time 28 day",3.6 meq/L
same,LDH,"[…], time 28 day",164.4 IU/L
same,Na,"[…], time 28 day",141.4 meq/L
same,PL,"[…], time 28 day",138.4 mg/dL
same,RALB,"[…], time 28 day",3.5 g/dL
same,TBIL,"[…], time 28 day",0.2 mg/dL
same,TC,"[…], time 28 day",65.2 mg/dL
same,TG,"[…], time 28 day",107.2 mg/dL
same,TP,"[…], time 28 day",6.3 g/dL
same,gamma-GTP,"[…], time 28 day",1.2 IU/L
